Experiment: Example 18 cynomolgus monkey PK study (SC and IM)
Type: in vivo, cynomolgus monkeys
Details: for EFdA plasma concentrations: 0.021 days
Excerpt: Example 18 referenced herein was made in accordance with Synthesis B. Six male cynomolgus monkeys (+1 spare) were selected from the Testing Facility's colony of non-naïve animals. The animals were assigned to the study based on acceptable health as determined by a Testing Facility veterinarian. Six animals were selected and placed into two groups of three animals each. Fasting of the animals before or after dosing was not required.
[…] […] The animals were manually restrained for dosing and were not sedated. The dose sites were clipped of hair and wiped with alcohol before dosing. All dosing was performed as detailed in the study protocol and was completed without incident.
Blood samples were collected from the study animals as detailed in the sample collection Table 39 below.
Blood samples were collected by venipuncture of a cephalic vein. For PK, blood was transferred to a blood collection tube containing NaF/Na2EDTA anticoagulant, mixed by inversion, and maintained on wet ice until processing. The blood samples were centrifuged at 2200×g for 10 minutes at 5° C. to isolate plasma. The resulting plasma samples were transferred to individual polypropylene tubes in a 96-well plate format and immediately placed on dry ice until storage at nominally −20° C. prior to shipment for analysis.
The PK plasma samples were analyzed approximately every two weeks by the Testing Facility to determine the concentration of Example 18 (prodrug) and parent using an LC-MS/MS Research Grade Assay (RGA-1) with sensitivity to 0.1 ng/mL. Following interim review of sample analysis data, analysis for Example 18 (prodrug) was discontinued after the Day 57 sample collections. The bioanalytical report and sample concentration data are presented in Tables 40 and 41, and mean concentration-time profiles are shown in FIGS. 29 and 30

For C#C[C@]1(COC(=O)CCCCCCCCC)O[C@@H](n2cnc3c(N)nc(F)nc32)C[C@@H]1OC(=O)CCCCCCCCC [Example 18, (2R,3S,5R)-5-(6-amino-2-fluoro-9H-purin-9-yl)-2-((decanoyloxy)methyl)-2-ethynyltetrahydrofuran-3-yl Decanoate], the “Example 18 plasma concentrations” value (IM EFdA, Monkey 2001, 43 days) was “BQL (BQL—Below Quantitation Limit, <0.100 ng/mL)”, the “Example 18 plasma concentrations” value (IM EFdA, Monkey 2001, 57 days) was “BQL (BQL—Below Quantitation Limit, <0.100 ng/mL)” and the EFdA plasma concentrations (IM EFdA, Monkey 2002) was “BQL (BQL—Below Quantitation Limit, <0.100 ng/mL)”. The “Example 18 plasma concentrations” value (IM EFdA, Monkey 2002, 36 days) was “BQL (BQL—Below Quantitation Limit, <0.100 ng/mL)”, the “Example 18 plasma concentrations” value (IM EFdA, Monkey 2002, 39 days) was “BQL (BQL—Below Quantitation Limit, <0.100 ng/mL)” and the “Example 18 plasma concentrations” value (IM EFdA, Monkey 2002, 46 days) was “BQL (BQL—Below Quantitation Limit, <0.100 ng/mL)”. The “Example 18 plasma concentrations” value (IM EFdA, Monkey 2002, 50 days) was “BQL (BQL—Below Quantitation Limit, <0.100 ng/mL)”, the “Example 18 plasma concentrations” value (IM EFdA, Monkey 2003, 29 days) was “BQL (BQL—Below Quantitation Limit, <0.100 ng/mL)” and the “Example 18 plasma concentrations” value (IM EFdA, Monkey 2003, 53 days) was “BQL (BQL—Below Quantitation Limit, <0.100 ng/mL)”. For the same compound, the “Example 18 plasma concentrations” value (IM equivalent of EFdA, Monkey 2001, 25 days) was “BQL (BQL—Below Quantitation Limit, <0.100 ng/mL)”, the “Example 18 plasma concentrations” value (IM equivalent of EFdA, Monkey 2001, 32 days) was “BQL (BQL—Below Quantitation Limit, <0.100 ng/mL)” and the “Example 18 plasma concentrations” value (IM equivalent of EFdA, Monkey 2001, 39 days) was “BQL (BQL—Below Quantitation Limit, <0.100 ng/mL)”. The “Example 18 plasma concentrations” value (IM equivalent of EFdA, Monkey 2001, 53 days) was “BQL (BQL—Below Quantitation Limit, <0.100 ng/mL)”, the “Example 18 plasma concentrations” value (IM equivalent of EFdA, Monkey 2002, 32 days) was “BQL (BQL—Below Quantitation Limit, <0.100 ng/mL)” and the “Example 18 plasma concentrations” value (IM equivalent of EFdA, Monkey 2002, 57 days) was “BQL (BQL—Below Quantitation Limit, <0.100 ng/mL)”. For the same compound, the EFdA plasma concentrations (IM equivalent of EFdA, Monkey 2003) was “BQL (BQL—Below Quantitation Limit, <0.100 ng/mL)”, the “Example 18 plasma concentrations” value (IM equivalent of EFdA, Monkey 2003, 32 days) was “BQL (BQL—Below Quantitation Limit, <0.100 ng/mL)” and the “Example 18 plasma concentrations” value (IM equivalent of EFdA, Monkey 2003, 39 days) was “BQL (BQL—Below Quantitation Limit, <0.100 ng/mL)”. For the same compound, the “Example 18 plasma concentrations” value (IM equivalent of EFdA, Monkey 2003, 50 days) was “BQL (BQL—Below Quantitation Limit, <0.100 ng/mL)”, the “Example 18 plasma concentrations” value (IM equivalent of EFdA, Monkey 2003, 57 days) was “BQL (BQL—Below Quantitation Limit, <0.100 ng/mL)” and the “Example 18 plasma concentrations” value (IM, Monkey 2001, 36 days) was “BQL (BQL—Below Quantitation Limit, <0.100 ng/mL)”. For the same compound, the “Example 18 plasma concentrations” value (IM, Monkey 2001, 46 days) was “BQL (BQL—Below Quantitation Limit, <0.100 ng/mL)”, the “Example 18 plasma concentrations” value (IM, Monkey 2001, 50 days) was “BQL (BQL—Below Quantitation Limit, <0.100 ng/mL)” and the “Example 18 plasma concentrations” value (IM, Monkey 2002, 43 days) was “BQL (BQL—Below Quantitation Limit, <0.100 ng/mL)”. For the same compound, the “Example 18 plasma concentrations” value (IM, Monkey 2002, 53 days) was “BQL (BQL—Below Quantitation Limit, <0.100 ng/mL)”, the “Example 18 plasma concentrations” value (IM, Monkey 2003, 36 days) was “BQL (BQL—Below Quantitation Limit, <0.100 ng/mL)” and the “Example 18 plasma concentrations” value (IM, Monkey 2003, 43 days) was “BQL (BQL—Below Quantitation Limit, <0.100 ng/mL)”. The “Example 18 plasma concentrations” value (SC EFdA, Monkey 1001, 22 days) was “BQL (BQL—Below Quantitation Limit, <0.100 ng/mL)”, the “Example 18 plasma concentrations” value (SC EFdA, Monkey 1001, 29 days) was “BQL (BQL—Below Quantitation Limit, <0.100 ng/mL)” and the “Example 18 plasma concentrations” value (SC EFdA, Monkey 1001, 43 days) was “BQL (BQL—Below Quantitation Limit, <0.100 ng/mL)”. For the same compound, the “Example 18 plasma concentrations” value (SC EFdA, Monkey 1001, 46 days) was “BQL (BQL—Below Quantitation Limit, <0.100 ng/mL)”, the “Example 18 plasma concentrations” value (SC EFdA, Monkey 1001, 53 days) was “BQL (BQL—Below Quantitation Limit, <0.100 ng/mL)” and the EFdA plasma concentrations (SC EFdA, Monkey 1002) was “BQL (BQL—Below Quantitation Limit, <0.100 ng/mL)”. The “Example 18 plasma concentrations” value (SC EFdA, Monkey 1002, 29 days) was “BQL (BQL—Below Quantitation Limit, <0.100 ng/mL)”, the “Example 18 plasma concentrations” value (SC EFdA, Monkey 1002, 43 days) was “BQL (BQL—Below Quantitation Limit, <0.100 ng/mL)” and the “Example 18 plasma concentrations” value (SC equivalent of EFdA, Monkey 1001, 8 days) was “BQL (BQL—Below Quantitation Limit, <0.100 ng/mL)”. The “Example 18 plasma concentrations” value (SC equivalent of EFdA, Monkey 1001, 17 days) was “BQL (BQL—Below Quantitation Limit, <0.100 ng/mL)”, the “Example 18 plasma concentrations” value (SC equivalent of EFdA, Monkey 1001, 19 days) was “BQL (BQL—Below Quantitation Limit, <0.100 ng/mL)” and the “Example 18 plasma concentrations” value (SC equivalent of EFdA, Monkey 1001, 32 days) was “BQL (BQL—Below Quantitation Limit, <0.100 ng/mL)”.
